Experimental data: ChEMBL document CHEMBL5726278, “Cytochrome P450 inhibitors and their method of use” (2017)

Test: Cyp21 Assay : Cyp21 assay protocol: AD293 cells that stably over-express recombinant CYP-21 were seeded in 96 well plates coated with poly D-lysine (10,000 cell per well) and incubated at 37° C. for 24 hours in Dulbecco's Modified Eagle Medium (DMEM) with Fetal Bovine Serum (FBS) that is stripped of hormones by charcoal treatment. The media is then removed, the cells are washed once with Phosphate buffer saline solution, and 50 μL Dulbecco's Modified Eagle Medium (DMEM) with Fetal Bovine Serum (FBS) that is stripped of hormones by charcoal treatment is added. Compounds of the disclosure are then added to the wells in eight concentration spanning 10 μM to 4.5 nM, and the plates are incubated for an additional 60 minutes at 37° C. 17α-OH Progesterone is then added (1.0 μM) and the plates are incubated for an additional 45 minutes at 37° C. After incubation, 50 uL of the supernatant (medium) is transferred into a fresh plate and 150 uL of an acetonitrile solution containing 200 ng/ml of Telmisartan is added. The sample is mixed and then placed in a centrifuge at 2000 rpm for 5 minutes.
Conditions: AD293, 24 h

Clc1cc(/C=C/c2ccc(N3CCN(C4=NCCO4)CC3)cc2)cc(Cn2ccnc2)c1
IC50: 3.5 µM

Clc1cc(/C=C/c2ccc(N3CCN(C4=NCCO4)CC3)cc2)cc(-c2ccncc2)c1
IC50: 1.2 µM

CS(=O)(=O)N1CCN(c2ccc(/C=C/c3cc(Cl)cc(-c4ccncc4)c3)cc2)CC1
IC50: 0.84 µM

CS(=O)(=O)N1CCN(c2ccc(/C=C/c3cc(Cl)cc(Cn4ccnc4)c3)cc2)CC1
IC50: 2.2 µM

CC(C)S(=O)(=O)N1CCN(c2ccc(/C=C/c3cc(Cl)cc(-c4ccncc4)c3)cc2)CC1
IC50: 0.565 µM

O=S(=O)(C1CC1)N1CCN(c2ccc(/C=C/c3cc(Cl)cc(-c4ccncc4)c3)cc2)CC1
IC50: 0.416 µM

CC(C)S(=O)(=O)N1CCN(c2ccc(/C=C/c3cc(F)cc(Cn4ccnc4)c3)cc2)CC1
IC50: 0.7 µM

N=C(N)N1CCN(c2ccc(/C=C/c3cc(F)cc(-c4ccncc4)c3)cc2)CC1
IC50: 10 µM

CS(=O)(=O)N1CCN(c2ccc(/C=C/c3cc(F)cc(Cn4ccnc4)c3)cc2)CC1
IC50: 10 µM

Fc1cc(/C=C/c2ccc(N3CCN(C4=NCCCO4)CC3)cc2)cc(Cn2ccnc2)c1
IC50: 1 µM

N=C(N)N1CCN(c2ccc(/C=C/c3cc(Cl)cc(Cn4ccnc4)c3)cc2)CC1
IC50: 10 µM

N=C(N)N1CCN(c2ccc(/C=C/c3cc(Cl)cc(-c4ccncc4)c3)cc2)CC1
IC50: 10 µM

N=C(N)N1CCN(c2ccc(/C=C/c3cc(F)cc(Cn4ccnc4)c3)cc2)CC1
IC50: 10 µM

Fc1cc(/C=C/c2ccc(N3CCN(C4=NCCO4)CC3)cc2)cc(-c2ccncc2)c1
IC50: 1.2 µM

Fc1cc(/C=C/c2ccc(N3CCN(C4=NCCO4)CC3)cc2)cc(Cn2ccnc2)c1
IC50: 10 µM

[C-]#[N+]CS(=O)(=O)N1CCN(c2ccc(/C=C/c3cc(F)cc(Cn4ccnc4)c3)cc2)CC1
IC50: 10 µM

CS(=O)(=O)N1CCN(c2ccc(/C=C/c3cc(F)cc(-c4ccncc4)c3)cc2)CC1
IC50: 0.74 µM
